Literature values, collected in patent publication US20170312254A1, “Low Dose Pharmaceutical Composition” (Cipla Limited, priority 2010, published 2017).

Columns and labels:
[1] = premarketing studies

Lipid solubility: highly lipid-soluble
Water solubility: highly water insoluble
Solubility in lower pH (lower pH): practically insoluble
Solubility at pH 6.8 (pH 6.8, until buffer strength is altered): insoluble
Elevations in liver transaminases, fraction of patients [1]: ⅓
Structure (SMILES): O=C(O)c1ccc(-n2nc(-c3ccccc3O)nc2-c2ccccc2O)cc1 [Deferasirox, 4-[3,5-bis (2-hydroxyphenyl)-[1,2, 4]triazol-1-yl] enzoic acid]
